system: Mucor circinelloides; experiment: Antifungal activity against Mucor circinelloides R7B wild type strain assessed as reduction in spore germination at 100 ug/ml relative to control; assay type: functional; set-up: scale not given: the % may be the effect or the level left; conditions: dose 100 µg/ml

| Compound | Activity [%] |
| --- | --- |
| COc1cc(-c2cccc(C(F)(F)F)c2)nc2ccccc12 | 88.9 |

system: Mucor circinelloides; experiment: Antifungal activity against Mucor circinelloides M5 strain assessed as reduction in spore germination at 100 ug/ml relative to control; assay type: functional; set-up: scale not given: the % may be the effect or the level left; conditions: dose 100 µg/ml

| Compound | Activity [%] |
| --- | --- |
| COc1cc(-c2cccc(C(F)(F)F)c2)nc2ccccc12 | 89.7 |

Source: ChEMBL document CHEMBL5143615, “Novel 2-aryl-4-aryloxyquinoline-based fungistatics for Mucor circinelloides. Biological evaluation of activity, QSAR and docking study” (Bioorg Med Chem Lett, 2022)
